Reference: patent publication US9617244B2, “Antibacterial quinoline derivatives” (JANSSEN PHARMACEUTICA NV, priority 2012, dated 2017)
Converted amounts (≈) assume the structure as drawn. Counter-ions that a name gives are not always drawn.

system: not given; experiment: not given; details: not given

SMILES | melting point [°C]
COc1nc2ccc(Br)cc2cc1C(c1cccc(Cl)c1)C1(O)CCNC(Cc2ccccc2)C1 (stereo not drawn) (as salt: fumarate) [Compound 35] | 145
COc1nc2ccc(F)cc2cc1C(c1ccc(Cl)cc1)C1(O)CCNC(Cc2ccccc2)C1 (stereo not drawn) (as salt: fumarate) [Compound 54] | 209
COc1nc2ccc(F)cc2cc1C(c1ccc(Cl)cc1)C1(O)CCNC(Cc2ccccc2)C1 (stereo not drawn) (as salt: fumarate) [Compound 55] | 120
CCCN(C)CC1CC(O)(C(c2ccc(Cl)cc2)c2cc3cc(Cl)ccc3nc2OC)CCN1 (stereo not drawn) (as salt: fumarate) [Compound 64] | 141
COc1nc2ccc(Br)cc2cc1C(c1ccc(Cl)cc1)C1(O)CCN(Cc2ccccc2)C(Cc2ccccc2)C1 (stereo not drawn) (as salt: fumarate) [Compound 76] | 148
COc1nc2ccc(Br)cc2cc1C(c1ccc(Cl)cc1)C1(O)CCNC(Cc2ccccc2)C1 (stereo not drawn) (as salt: fumarate) [Compound 77] | 155
CSc1nc2ccc(Br)cc2cc1C(c1ccc(Cl)cc1)C1(O)CCNC(Cc2ccccc2)C1 (stereo not drawn) (as salt: fumarate) [Compound 88] | 194
COc1nc2ccc(SC)cc2cc1C(c1ccc(Cl)cc1)C1(O)CCNC(Cc2ccccc2)C1 (stereo not drawn) (as salt: fumarate) [Compound 90] | 140
COc1nc2ccc(SC)cc2cc1C(c1ccc(Cl)cc1)C1(O)CCNC(Cc2ccccc2)C1 (stereo not drawn) (as salt: fumarate) [Compound 93] | > 250
COc1nc2ccc(Cl)cc2cc1C(c1ccc(Cl)cc1)C1(O)CCNC(Cc2ccccc2)C1 (stereo not drawn) (as salt: fumarate) [Compound 94] | 168
COc1nc2ccc(Br)cc2cc1C(c1ccc(Cl)cc1)C1(O)CCNC(Cc2ccc(F)c(F)c2)C1 (stereo not drawn) (as salt: fumarate) [Compound 113] | 130
CS(=O)(=O)c1ccc2[nH]c(=O)c(C(c3ccc(Cl)cc3)C3(O)CCNC(Cc4ccccc4)C3)cc2c1 (stereo not drawn) (as salt: fumarate) [Compound 119] | 215
COc1nc2ccccc2cc1C(c1ccc(Cl)cc1)C1(O)CCNC(Cc2ccc(F)c(F)c2)C1 (stereo not drawn) (as salt: fumarate) [Compound 139] | 130
COc1nc2ccc(SC)cc2cc1C(c1ccccc1)C1(O)CCNC(Cc2ccccc2)C1 (stereo not drawn) (as salt: fumarate) [Compound 141] | 155
COc1nc2ccc(Br)cc2cc1C(c1cccc(Cl)c1)C1(O)CCNC(c2ccc(F)cc2C)C1 (stereo not drawn) (as salt: fumarate) [Compound 149] | 178

system: Mycobacterium smegmatis (ATCC607); experiment: In-vitro anti-bacterial activity against strain M. Smegmatis ATCC607; assay type: cell-based; details: 90% inhibitory concentration for bacterial growth, 48 hours, Alamar Blue fluorescence
Method in brief: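 IC90 (μg/ml) derived from Alamar Blue fluorescence (530/590 nm) after 48 h growth at 37 °C under 5% CO2. About 250 CFU per well in Mueller-Hinton broth faced five-fold serial compound dilutions in BSA-containing wells.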

SMILES | IC90 MSM 607 [µg/mL]
COc1nc2ccc(SC(C)C)cc2cc1C(c1ccc(Cl)cc1)C1(O)CCNC(Cc2ccccc2)C1 (stereo not drawn) [Compound 383] | 2.74 (≈ 5.01 µM)
COc1nc2ccc(SC(C)C)cc2cc1C(c1ccc(Cl)cc1)C1(O)CCNC(Cc2ccccc2)C1 (stereo not drawn) [Compound 384] | 2.18 (≈ 3.98 µM)
COc1nc2ccc(SC(C)C)cc2cc1C(c1ccc(Cl)cc1)C1(O)CCNC(Cc2ccccc2)C1 (stereo not drawn) [Compound 385] | 1.37 (≈ 2.5 µM)
COc1nc2ccccc2cc1C(c1ccccc1)C1(O)CCNC(Cc2ccccc2)C1 (stereo not drawn) [Compound 400] | >12.47
COc1nc2ccccc2cc1C(c1ccccc1)C1(O)CCNC(Cc2ccccc2)C1 (stereo not drawn) [Compound 401] | >12.77
COc1nc2ccccc2cc1C(c1ccccc1)C1(O)CCNC(Cc2ccccc2)C1 (stereo not drawn) [Compound 402] | 12.47 (≈ 28.4 µM)
COc1nc2ccc(Cl)cc2cc1C(c1ccc(Cl)cc1)C1(O)CCNC(c2ccccc2)C1 (stereo not drawn) [Compound 403] | 8.66 (≈ 17.6 µM)
COc1nc2ccc(Cl)cc2cc1C(c1ccc(Cl)cc1)C1(O)CCNC(c2ccccc2)C1 (stereo not drawn) [Compound 404] | 1.68 (≈ 3.4 µM)
COc1nc2ccc(Cl)cc2cc1C(c1ccc(Cl)cc1)C1(O)CCNC(c2ccccc2)C1 (stereo not drawn) [Compound 405] | 2.63 (≈ 5.33 µM)
COc1nc2ccc(F)cc2cc1C(c1ccc(SC)cc1)C1(O)CCNC(c2ccc(F)cc2C)C1 (stereo not drawn) [Compound 407] | 1.17 (≈ 2.25 µM)
COc1nc2ccc(Cl)cc2cc1C(c1ccc(Cl)cc1)C1(O)CCNCC1c1ccccc1 (stereo not drawn) [Compound 409] | 6.36 (≈ 12.9 µM)
COc1nc2ccc(Cl)cc2cc1C(c1ccc(Cl)cc1)C1(O)CCNCC1c1ccccc1 (stereo not drawn) [Compound 410] | 7.73 (≈ 15.7 µM)

system: Staphylococcus aureus (ATCC29213); experiment: In-vitro anti-bacterial activity, microtitre plate assay, IC90 determination (non-mycobacterial strains); assay type: cell-based; details: 90% inhibitory concentration for bacterial growth, 24 hours, resazurin fluorescence
Method in brief: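 Growth inhibition measured fluorometrically with resazurin (530/590 nm) after overnight 37 °C incubation under normal atmosphere. Bacteria added at roughly 100 TCID50 per well in Mueller-Hinton broth to five-fold compound dilution series; IC90 reported in μg/ml.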

SMILES | IC90 STA B29213 [µg/mL]
COc1nc2ccc(SC(C)C)cc2cc1C(c1ccc(Cl)cc1)C1(O)CCNC(Cc2ccccc2)C1 (stereo not drawn) [Compound 383] | 3.45 (≈ 6.31 µM)
COc1nc2ccc(SC(C)C)cc2cc1C(c1ccc(Cl)cc1)C1(O)CCNC(Cc2ccccc2)C1 (stereo not drawn) [Compound 384] | 3.45 (≈ 6.31 µM)
COc1nc2ccc(SC(C)C)cc2cc1C(c1ccc(Cl)cc1)C1(O)CCNC(Cc2ccccc2)C1 (stereo not drawn) [Compound 385] | 1.73 (≈ 3.16 µM)
COc1nc2ccccc2cc1C(c1ccccc1)C1(O)CCNC(Cc2ccccc2)C1 (stereo not drawn) [Compound 400] | >12.47
COc1nc2ccccc2cc1C(c1ccccc1)C1(O)CCNC(Cc2ccccc2)C1 (stereo not drawn) [Compound 401] | >12.77
COc1nc2ccccc2cc1C(c1ccccc1)C1(O)CCNC(Cc2ccccc2)C1 (stereo not drawn) [Compound 402] | >12.47
COc1nc2ccc(Cl)cc2cc1C(c1ccc(Cl)cc1)C1(O)CCNC(c2ccccc2)C1 (stereo not drawn) [Compound 403] | 9.72 (≈ 19.7 µM)
COc1nc2ccc(Cl)cc2cc1C(c1ccc(Cl)cc1)C1(O)CCNC(c2ccccc2)C1 (stereo not drawn) [Compound 404] | 2.99 (≈ 6.06 µM)
COc1nc2ccc(Cl)cc2cc1C(c1ccc(Cl)cc1)C1(O)CCNC(c2ccccc2)C1 (stereo not drawn) [Compound 405] | 5.26 (≈ 10.7 µM)
COc1nc2ccc(F)cc2cc1C(c1ccc(SC)cc1)C1(O)CCNC(c2ccc(F)cc2C)C1 (stereo not drawn) [Compound 407] | 1.65 (≈ 3.17 µM)
COc1nc2ccc(Cl)cc2cc1C(c1ccc(Cl)cc1)C1(O)CCNCC1c1ccccc1 (stereo not drawn) [Compound 409] | 2.01 (≈ 4.07 µM)
COc1nc2ccc(Cl)cc2cc1C(c1ccc(Cl)cc1)C1(O)CCNCC1c1ccccc1 (stereo not drawn) [Compound 410] | 12.25 (≈ 24.8 µM)
